Earlier results as cited in patent US20100119624A1, “BENZISOXAZOLE MODULATORS OF D2 RECEPTOR AND/OR 5-HT2A RECEPTOR” (AUSPEX PHARMACEUTICALS, INC., priority 2008, published 2010).

Legend:
[1] = coadministration of nafzodone, a competitive CYP3A inhibitor
[2] = in vivo
[3] = tested on: prolactin; settings: in vivo

For Cc1nc2n(c(=O)c1CCN1CCC(c3noc4cc(F)ccc34)CC1)CCCC2 [Risperidone, 4-[2-[4-(6-fluorobenzo[d]isoxazol-3-yl)-1-piperidyl]ethyl]-3-methyl-2,6-diazabicyclo[4.4.0]deca-1,3-dien-5-one], the “decrease in risperidone clearance” value [1] is given as ~50% and the half-life [2] is given as “about 2 hours”.

For Cc1nc2n(c(=O)c1CCN1CCC(c3noc4cc(F)ccc34)CC1)CCCC2O (stereo not drawn) [9-Hydroxyrisperidone], the levels of prolactin [3] is listed as “elevation in the levels of prolactin”.
